Test results from US10327423B2, “Antimicrobial compounds and compositions, and uses thereof” (Akeso Biomedical, Inc., priority 2014, dated 2019).
“Also recorded” adds a separate entry of the source.

Tests used:
[1] = system: Enteropathogenic E. coli (EPEC) strain E2348/69; experiment: Growth curve of antibiotic resistant EPEC with gentamicin and Fe complex; format: cell-based, Escherichia coli
Description: The impact on the growth curve of antibiotic resistant Enteropathogenic E. coli (EPEC) strain E2348/69 (genotype Wild Type EPEC O17:H6) when grown in the presence of (i) gentamicin (1.25 μM), (ii) Fe-Tyr (100 μM), (iii) gentamicin (1.25 μM) and Fe-Tyr (1.25 μM), and (iv) a control with no gentamicin or Fe-Tyr present was determined.
(§1) The impact on the growth curve of antibiotic resistant Enteropathogenic E. coli (EPEC) strain E2348/69 (genotype Wild Type EPEC O17:H6) when grown in the presence of a fixed concentration of gentamicin (1.25 μM) and an increasing concentration of FeQ versus the strain grown in the presence of only FeQ or only gentamicin, was determined.
as §1, with “FeDOPA” for “FeQ”

EPEC-AcsrA = experiment: BioFlux system, disruption of a mature biofilm; format: cell-based, Escherichia coli; conditions: 20 hours
Description: The mature biofilm was treated with FeTyr at concentrations of 100, 150 and 200 μM for 20 hours and compared to a control biofilm that had just been treated with LB medium 30% v/v. […] Mature biofilm was treated with FeDOPA at a concentration of 100 μM for 20 hours and compared to a control biofilm that had just been treated with LB medium 30% v/v.

EPEC-pgA^++ = experiment: Crystal violet assay of disruption of a mature biofilm; format: cell-based, Escherichia coli; conditions: FeTyr 100, 150 and 200 μM; 72 hours
Description: A mature biofilm formed by EPEC-pgA^++ was treated with FeTyr for 24, 48 and 72 hours at FeTyr concentrations of 100 μM, 150 μM and 200 μM and the presence of the biofilm after these times was compared to an untreated biofilm (labeled “Control”) using a crystal violet assay. The color of the control wells was more intense in color at 72 hours than those that were treated with FeTyr at 100, 150 and 200 μM for 72 hours.

[2] = Growth performance of broilers challenged with Campylobacter dirty litter at day 20; format: in vivo, chicken (Ross 308 male broilers); conditions: treatment groups 3, 5, 6, 7 (FeQ) and 8 (FeTyr)
Description: (§2) A study was performed to evaluate growth promotion and reduction of Campylobacter carriage using FeQ and FeTyr in Ross 308 male broilers with 7 treatment groups. Each treatment group comprised four replicates of 10 birds per pen (40 birds/treatment group and 4 pens of 10 birds/treatment group), and there were 2 control groups and 5 test groups. All the test groups and one of the control groups were exposed at day 20 of the trial to dirty litter, which tested positive for Campylobacter. This method was used to provide a more natural method to Campylobacter challenge the birds. Thus there was a positive control where one treatment group was challenged with Campylobacter and one negative control group where the birds were not challenged, and five treatment groups that were all challenged with Campylobacter. The total number of birds used in the 7 treatment groups was 280. Treatment group 1 was a negative control where birds just received the commercial feed, and were not challenged with dirty litter containing Campylobacter. Treatment group 2 was the positive control where the birds received the commercial feed, and were challenged with dirty litter containing Campylobacter at day 20. Treatment group 3 received 0.22 g/L of FeQ in their drinking water and 0.22 g/Kg FeQ in their feed during the entire trial, and was challenged with dirty litter containing Campylobacter at day 20. Treatment group 5 received 0.22 g/L of FeQ in their drinking water during the entire trial, and was challenged with dirty litter containing Campylobacter at day 20. Treatment group 6 received 0.22 g/kg FeQ in their feed during the entire trial, and was challenged with dirty litter containing Campylobacter at day 20. Treatment group 7 received 0.022 g/L FeQ in their drinking water during the entire trial, and was challenged with dirty litter containing Campylobacter at day 20. Treatment group 8 received 0.02 g/L FeTyr in their drinking water during the entire trial, and was challenged with dirty litter containing Campylobacter at day 20. The FeTyr was pre-dissolved in DMSO, and diluted to provide a solution of 0.02 g/L of FeTyr in water. (An additional treatment group 4 was terminated due to solubility issues.) […]
The feeding program is show in Table 4. […] All birds were weighed individually and feed weigh backs recorded per pen at day 0, 11, 21, 24 and 42 days.
In order to minimize risk of cross-contamination, standard industry biosecurity measures were used including: disinfecting boots, changing overshoes and gloves between pens/treatments, entering Campylobacter negative pens before entering Campylobacter positive pens, and leaving adjacent pens empty. Daily health, culls, and mortality were recorded. All bird weights were recorded at 0, 11, 21, 24, 33 and 42 days. […]

Campylobacter = Campylobacter carriage in chickens (cfu/g of droppings and caeca samples); format: in vivo; conditions: treatment groups 3, 5, 6, 7 (FeQ) and 8 (FeTyr), days 0-42; dirty litter challenge
Description: as §2, with “20.” for “20. Treatment group 7 received 0.022 g/L FeQ in their drinking water during the entire trial, and was challenged with dirty litter containing Campylobacter at day 20. Treatment group 8 received 0.02 g/L FeTyr in their drinking water during the entire trial, and was challenged with dirty litter containing Campylobacter at day 20. The FeTyr was pre-dissolved in DMSO, and diluted to provide a solution of 0.02 g/L of FeTyr in water. (An additional treatment group 4 was terminated due to solubility issues.)”
Prior to challenging the chickens with dirty litter containing Campylobacter at day 20, each pen was tested for Campylobacter using cloacal swabs. […] Samples were analyzed for blood chemistry, including analysis for alkaline phosphatase, aspartate amino transferase, alanine amino transferase, gamma-glutamyl transferase, lactate dehydrogenase, total protein, albumin, globulin, amylase and glucose.

[3] = system: Enteropathogenic E. coli (EPEC) E2348/69; experiment: Crystal violet assay of attachment to plastic wells; format: cell-based, Escherichia coli; conditions: FeDOPA 68-250 μM; 48 hours at 37° C.
Description: (§3) Enteropathogenic E. coli (EPEC) E2348/69 were grown in wells for 48 hours at 37° C. in the presence of FeQ (100 μM), and in the absence of FeQ (as control). After 48 hours, the wells were washed in order to remove suspended cells. Crystal violet was then added to each well. The wells were then washed to remove excess dye. A mixture of acetone/ethanol was then added to the wells to re-suspend any cells attached to the plastic surface of the wells, and dissolve any dye present. The presence of dye in each well was then quantified by measuring the O.D. at 570 nm.
as §3, with “FeDOPA (10-250” for “FeQ (100”, “FeDOPA” for “FeQ”

[4] = system: mixed population of clinical isolates (PAO Mixed); experiment: Growth (OD600) in LB with Amikacin, tolerance to antibiotic; format: cell-based, Pseudomonas aeruginosa; conditions: 34, 100, 200 and 340 μM of FeQ or FePhe; Amikacin 10 µg/ml; 17.5 hours at 37° C.
Description: (§4) To investigate effects upon antibiotic resistance, a laboratory strain of Psuedomonas aeruginosa (PAO1N) and a mixed population of clinical isolates (PAO Mixed) were incubated in Luria-Bertani (LB) media alone, or with different concentrations (34 μM, 100 μM, 200 μM and 340 μM) of FeQ or FePhe.
(§5) Each of the different media, bar one control, contained 10 µg/ml of the aminoglycoside antibiotic Amikacin.
(§6) 10 μl of the bacterial strains were added into each well of a 96-well micro-titer plate, before 290 μl of the relevant media was added to wells. Each different condition was repeated in sextuplicate.
(§7) The plate was incubated at 37° C. within a micro-titer plate reader for 17.5 hours, with the OD600 read every 30 minutes.

[5] = system: Psuedomonas aeruginosa (PAO1N); experiment: as above; format: cell-based, Pseudomonas aeruginosa; conditions: 34, 100, 200 and 340 μM of FeQ or FePhe; Amikacin 10 µg/ml; 17.5 hours at 37° C.
Description: as §4, §5, §6, §7

With `O=C1[O][Fe]23([NH]C1Cc1ccc(O)cc1)([NH]C(Cc1ccc(O)cc1)C(=O)[O]2)[NH]C(Cc1ccc(O)cc1)C(=O)[O]3` [FeTyr, a complex of L-tyrosine with Fe III] as the compound, how does the “rate of growth (growth curve)” value ([1]; Fe-Tyr 100 μM alone) read?
Its value is “comparable to the control”.

And the “rate of growth relative to gentamicin alone” value ([1]; gentamicin 1.25 μM and Fe-Tyr 1.25 μM)?
The value was “loses its resistance; also recorded: inhibited”.

What about the “dispersion of mature biofilm” value (EPEC-AcsrA; FeTyr 100, 150 and 200 μM) of the same compound?
Its value is “biofilm dispersion increased”.

What about the “optical absorbance of crystal violet at 570 nm of remaining mature biofilm versus untreated” value (EPEC-pgA^++) of the same compound?
Its value is “significantly lower optical absorbance”.

What about the “ABW at day 42 versus positive control (challenged, untreated)” value [2] of the same compound?
Its value is “performed better than the positive control”.

And the “MFCR at day 42 versus positive control (challenged, untreated)” value [2]?
The value was “performed better than the positive control”.

And the “average Campylobacter cfu/g of caeca samples at day 42 versus positive control” value (Campylobacter)?
The value was “lower levels of Campylobacter in their caeca; also recorded: performed better than the positive control”.

With `O=C1[O][Fe]23([NH]C1Cc1ccc(O)c(O)c1)([NH]C(Cc1ccc(O)c(O)c1)C(=O)[O]2)[NH]C(Cc1ccc(O)c(O)c1)C(=O)[O]3` [FeDOPA, a complex of L-DOPA with Fe III (3,4 dihydrophenylalanine)] as the compound, how does the “attachment of EPEC cells to plastic well surface and biofilm formation (crystal violet, O.D. 570 nm)” value [3] read?
The value was “inhibited”.

What about the “rate of growth relative to gentamicin alone” value ([1]; gentamicin 1.25 μM and FeDOPA 130, 160, 200 μM) of the same compound?
The value was “inhibited”.

And the “dispersion of mature biofilm” value (EPEC-AcsrA; FeDOPA 100 μM)?
The value was “dispersed the biofilm”.

Which “tolerance to the aminoglycoside Amikacin (OD600 growth)” value [4] does the source give for “A complex of L-phenylalanine with Fe III [Fe-Phe]” here?
The value was “reducing tolerance”.

What about the “tolerance to the aminoglycoside Amikacin (OD600 growth)” value [5] of the same compound?
The value was “reducing tolerance”.
